Tests used:
Assay type in all cases: biochemical
FGFR4 = FGFR4 (Homo sapiens (Human), UniProt P22455); assay: HTRF KinEASE-TK kinase assay, FGFR4; settings: for IC50: dose response; for remaining activity at 1 µM: read-out: % FGFR4 Remaining activity vs DMSO (1 μM, 3 h); for remaining activity at 10 µM: read-out: % FGFR4 Remaining activity vs DMSO (10 μM, 3 h)
Experimental: (§1) Kinase activity was monitored using a HTRF® KinEASE-TK kit from Cisbio (62TK0PEC). […] FGFR-4 was purchased from Promega. 0.333 ng/ul FGFR4 (5.12 nM) was preincubated in the absence or presence of inhibitor at room temperature for 3 hours. Reaction with substrate was then initiated by adding biotinylated substrate and ATP. […] The reaction was terminated by adding 31.25 nM SA-XL665 and 100 fold diluted europium labelled antibody (Eu-Ab), diluted in 1× detection buffer that contained EDTA. After 60 min of incubation, the fluorescence emission was measured at 620 nm and 665 nm. The ratio of Em 665 nm to Em 620 nm was proportional to the amount of substrate phosphorylated by the kinase.

BTK = BTK (Homo sapiens (Human), UniProt Q06187); assay: HTRF KinEASE-TK kinase assay, BTK; settings: 3 h preincubation; for remaining activity at 1 µM: 1 μM compound, read-out: % BTK Remaining activity vs DMSO (1 μM, 3 h); for remaining activity at 10 µM: 10 μM compound, read-out: % BTK Remaining activity vs DMSO (10 μM, 3 h)
Experimental: Kinase activity was monitored using a HTRF® KinEASE-TK kit from Cisbio (62TK0PEC). For BTK, the 1× kinase buffer was supplemented with 10 mM MnCl2, 5 mM MgCl2, 1 uM ATPγS, 1 mM TCEP and 100 fold diluted Supplementary Enzyme Buffer. BTK was purchased from Promega. […] Reaction with substrate was then initiated by adding biotinylated substrate and ATP and the reaction was allowed to proceed for 45 min. […] After 60 min of incubation, the fluorescence emission was measured at 620 nm and 665 nm. The ratio of Em 665 nm to Em 620 nm was proportional to the amount of substrate phosphorylated by the kinase.

EGFR = EGFR (Homo sapiens (Human), UniProt P00533); assay: HTRF KinEASE-TK kinase assay, EGFR; settings: 3 h preincubation; for remaining activity at 1 µM: 1 μM compound, read-out: % EGFR Remaining activity vs DMSO (1 μM, 3 h); for remaining activity at 10 µM: 10 μM compound, read-out: % EGFR Remaining activity vs DMSO (10 μM, 3 h); for IC50: dose response, read-out: EGFR Inhibition IC50
Experimental: Kinase activity was monitored using a HTRF® KinEASE-TK kit from Cisbio (62TK0PEC). The buffer used was 1× kinase buffer supplemented with 2 mM MnCl2, 5 mM MgCl2, 1 mM TCEP and 100× diluted Supplementary Enzyme Buffer. EGFR was purchased from Promega. […] Reaction with substrate was then initiated by adding biotinylated substrate and ATP. […] After 60 min of incubation, the fluorescence emission was measured at 620 nm and 665 nm. The ratio of Em 665 nm to Em 620 nm was proportional to the amount of substrate phosphorylated by the kinase.
For initial screening, enzymes were pre incubated with compounds at 2 different concentrations (1 and 10 uM final) and 0.5% DMSO.

JAK3 = JAK3 (Homo sapiens (Human), UniProt P52333); assay: HTRF KinEASE-TK kinase assay, JAK3; settings: for remaining activity at 1 µM: read-out: % JAK3 Remaining activity vs DMSO (1 μM, 3 h); for remaining activity at 10 µM: read-out: % JAK3 Remaining activity vs DMSO (10 μM, 3 h)
Experimental: as §1, with “JAK-3” for “FGFR-4”, “0.0133” for “0.333”, “JAK3 (0.21” for “FGFR4 (5.12”

BMX = BMX (Homo sapiens (Human), UniProt P51813); assay: HTRF KinEASE-TK kinase assay, BMX; settings: for remaining activity at 1 µM: 1 uM compound; for remaining activity at 1 µM / remaining activity at 10 µM: 3 h preincubation; for remaining activity at 10 µM: 10 uM compound
Experimental: as §1, with “BMX” for “FGFR-4”, “BMX (3.03” for “FGFR4 (5.12”, “The reaction” for “Reaction”, “Reaction” for “The reaction”

RIPK2 = RIPK2 (Homo sapiens (Human), UniProt O43353); assay: In vitro RIPK2 inhibition; settings: for remaining activity at 1 µM: read-out: % RIPK2 Remaining activity vs DMSO (1 μM, 3 h); for remaining activity at 10 µM: read-out: % RIPK2 Remaining activity vs DMSO (10 μM, 3 h)
Chain of RIPK2 (O43353 whole entry, species assumed): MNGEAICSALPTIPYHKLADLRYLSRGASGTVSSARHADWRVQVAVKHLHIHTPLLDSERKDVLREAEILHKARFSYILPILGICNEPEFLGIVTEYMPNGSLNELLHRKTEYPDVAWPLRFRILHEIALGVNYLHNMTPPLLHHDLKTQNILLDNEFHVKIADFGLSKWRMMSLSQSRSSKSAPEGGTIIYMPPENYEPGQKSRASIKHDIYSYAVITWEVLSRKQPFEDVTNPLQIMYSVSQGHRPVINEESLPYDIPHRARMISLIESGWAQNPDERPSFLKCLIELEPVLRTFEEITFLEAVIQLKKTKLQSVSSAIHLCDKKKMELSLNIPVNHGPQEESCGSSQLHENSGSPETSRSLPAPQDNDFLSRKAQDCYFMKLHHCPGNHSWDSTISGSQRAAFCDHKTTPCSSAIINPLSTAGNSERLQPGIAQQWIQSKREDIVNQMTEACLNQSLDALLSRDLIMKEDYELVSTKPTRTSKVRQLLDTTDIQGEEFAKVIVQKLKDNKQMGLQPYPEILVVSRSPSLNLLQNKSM

Chain of EGFR (P00533 25-1210): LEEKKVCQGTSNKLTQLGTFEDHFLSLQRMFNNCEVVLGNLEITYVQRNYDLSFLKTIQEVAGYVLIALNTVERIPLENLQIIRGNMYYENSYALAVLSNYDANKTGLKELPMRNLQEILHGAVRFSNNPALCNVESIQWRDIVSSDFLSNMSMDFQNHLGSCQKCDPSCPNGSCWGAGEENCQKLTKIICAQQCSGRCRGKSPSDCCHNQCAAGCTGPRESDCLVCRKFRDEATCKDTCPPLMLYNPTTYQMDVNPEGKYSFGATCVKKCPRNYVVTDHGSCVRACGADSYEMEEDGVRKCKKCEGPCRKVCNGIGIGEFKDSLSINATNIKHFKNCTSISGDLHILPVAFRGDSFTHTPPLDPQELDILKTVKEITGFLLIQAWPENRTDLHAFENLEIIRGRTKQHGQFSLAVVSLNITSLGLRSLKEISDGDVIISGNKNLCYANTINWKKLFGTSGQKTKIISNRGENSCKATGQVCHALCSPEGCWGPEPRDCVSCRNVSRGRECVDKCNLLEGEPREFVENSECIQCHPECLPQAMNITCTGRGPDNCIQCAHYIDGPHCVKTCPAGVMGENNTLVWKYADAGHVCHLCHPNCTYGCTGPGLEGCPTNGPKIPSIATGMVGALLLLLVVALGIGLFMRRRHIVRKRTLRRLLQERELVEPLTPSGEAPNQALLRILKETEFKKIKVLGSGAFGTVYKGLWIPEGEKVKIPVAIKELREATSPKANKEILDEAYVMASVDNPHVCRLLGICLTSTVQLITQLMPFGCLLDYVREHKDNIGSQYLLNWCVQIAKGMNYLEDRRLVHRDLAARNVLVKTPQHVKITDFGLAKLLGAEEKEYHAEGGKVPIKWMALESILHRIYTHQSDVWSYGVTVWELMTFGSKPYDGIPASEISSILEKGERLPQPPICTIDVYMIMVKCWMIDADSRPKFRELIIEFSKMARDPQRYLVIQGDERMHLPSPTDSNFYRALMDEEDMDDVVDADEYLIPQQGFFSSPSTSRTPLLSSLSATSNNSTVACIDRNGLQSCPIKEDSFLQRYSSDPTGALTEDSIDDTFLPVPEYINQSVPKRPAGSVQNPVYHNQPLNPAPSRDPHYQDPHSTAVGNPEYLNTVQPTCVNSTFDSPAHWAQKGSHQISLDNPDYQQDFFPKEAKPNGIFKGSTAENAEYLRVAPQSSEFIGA
Chain of FGFR4 (P22455 22-802): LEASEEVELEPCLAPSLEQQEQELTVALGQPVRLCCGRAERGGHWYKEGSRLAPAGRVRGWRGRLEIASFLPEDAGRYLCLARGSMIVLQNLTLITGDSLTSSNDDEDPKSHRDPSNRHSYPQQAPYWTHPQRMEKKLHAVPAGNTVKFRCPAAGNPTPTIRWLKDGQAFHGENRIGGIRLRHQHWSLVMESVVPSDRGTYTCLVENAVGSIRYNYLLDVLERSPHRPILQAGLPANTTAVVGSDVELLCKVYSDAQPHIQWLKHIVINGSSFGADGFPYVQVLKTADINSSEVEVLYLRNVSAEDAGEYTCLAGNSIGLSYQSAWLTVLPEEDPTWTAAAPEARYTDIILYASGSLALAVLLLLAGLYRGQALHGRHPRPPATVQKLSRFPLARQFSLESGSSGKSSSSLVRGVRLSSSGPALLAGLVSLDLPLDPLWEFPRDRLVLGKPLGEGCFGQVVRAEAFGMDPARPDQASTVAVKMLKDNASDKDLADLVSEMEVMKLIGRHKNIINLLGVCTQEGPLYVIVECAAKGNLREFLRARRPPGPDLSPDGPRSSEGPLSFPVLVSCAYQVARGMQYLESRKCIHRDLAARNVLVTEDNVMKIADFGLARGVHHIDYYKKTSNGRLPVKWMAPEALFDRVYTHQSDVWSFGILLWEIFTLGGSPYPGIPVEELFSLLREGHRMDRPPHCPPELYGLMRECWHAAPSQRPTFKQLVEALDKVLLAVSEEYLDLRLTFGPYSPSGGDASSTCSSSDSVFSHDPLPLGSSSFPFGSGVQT
Chain of JAK3 (P52333 781-1124): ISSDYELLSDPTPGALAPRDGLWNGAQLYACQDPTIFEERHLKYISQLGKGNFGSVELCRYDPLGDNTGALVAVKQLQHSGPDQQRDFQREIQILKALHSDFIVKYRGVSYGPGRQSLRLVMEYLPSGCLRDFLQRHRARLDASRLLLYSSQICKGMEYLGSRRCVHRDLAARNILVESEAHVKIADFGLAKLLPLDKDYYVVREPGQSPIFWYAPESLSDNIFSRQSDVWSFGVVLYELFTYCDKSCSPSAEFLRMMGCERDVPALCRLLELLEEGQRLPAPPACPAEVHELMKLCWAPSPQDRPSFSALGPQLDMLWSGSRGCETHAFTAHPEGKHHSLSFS
Chain of BMX (P51813 whole entry): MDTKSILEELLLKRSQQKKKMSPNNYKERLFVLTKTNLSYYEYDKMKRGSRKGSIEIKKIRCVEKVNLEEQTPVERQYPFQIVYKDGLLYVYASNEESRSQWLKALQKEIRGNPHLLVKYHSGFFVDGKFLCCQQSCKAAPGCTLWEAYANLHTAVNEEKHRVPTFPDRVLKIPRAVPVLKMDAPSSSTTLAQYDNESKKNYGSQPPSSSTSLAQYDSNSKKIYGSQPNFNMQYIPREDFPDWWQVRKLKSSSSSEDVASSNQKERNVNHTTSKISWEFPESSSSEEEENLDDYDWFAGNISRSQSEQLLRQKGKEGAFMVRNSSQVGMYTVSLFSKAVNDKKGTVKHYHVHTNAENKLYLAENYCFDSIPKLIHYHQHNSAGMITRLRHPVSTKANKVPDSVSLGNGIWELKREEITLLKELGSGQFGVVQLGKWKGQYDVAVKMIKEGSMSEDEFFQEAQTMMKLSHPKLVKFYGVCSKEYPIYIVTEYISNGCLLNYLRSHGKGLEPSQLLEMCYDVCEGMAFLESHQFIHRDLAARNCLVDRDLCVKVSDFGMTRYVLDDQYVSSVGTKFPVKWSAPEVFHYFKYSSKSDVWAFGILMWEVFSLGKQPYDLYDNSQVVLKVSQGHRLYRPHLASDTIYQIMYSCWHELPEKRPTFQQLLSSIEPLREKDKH
Chain of BTK (Q06187 whole entry): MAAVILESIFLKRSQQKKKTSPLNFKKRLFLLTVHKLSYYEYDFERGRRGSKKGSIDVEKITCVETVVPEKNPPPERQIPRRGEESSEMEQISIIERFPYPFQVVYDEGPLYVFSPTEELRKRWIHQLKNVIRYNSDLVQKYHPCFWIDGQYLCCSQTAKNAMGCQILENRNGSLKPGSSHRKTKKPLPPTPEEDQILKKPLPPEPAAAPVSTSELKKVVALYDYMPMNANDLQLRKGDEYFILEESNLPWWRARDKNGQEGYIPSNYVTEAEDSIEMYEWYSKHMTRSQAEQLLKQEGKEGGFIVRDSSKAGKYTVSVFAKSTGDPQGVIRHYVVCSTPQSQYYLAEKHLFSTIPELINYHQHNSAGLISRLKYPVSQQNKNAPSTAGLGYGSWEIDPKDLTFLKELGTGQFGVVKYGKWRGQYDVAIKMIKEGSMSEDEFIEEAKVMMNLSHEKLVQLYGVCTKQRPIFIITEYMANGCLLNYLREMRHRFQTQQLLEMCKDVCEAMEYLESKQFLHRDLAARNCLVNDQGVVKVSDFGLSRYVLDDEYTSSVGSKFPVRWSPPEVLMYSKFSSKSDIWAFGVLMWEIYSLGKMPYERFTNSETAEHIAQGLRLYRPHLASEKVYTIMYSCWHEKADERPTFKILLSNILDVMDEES

Compound | IC50 (FGFR4) | IC50 (BTK; dose response, read-out: BTK Inhibition IC50) | remaining activity at 1 µM (EGFR) | remaining activity at 10 µM (EGFR) | IC50 (EGFR) | remaining activity at 1 µM (JAK3) | remaining activity at 10 µM (JAK3) | remaining activity at 1 µM (FGFR4) | remaining activity at 10 µM (FGFR4) | remaining activity at 1 µM (BMX) | remaining activity at 10 µM (BMX) | remaining activity at 1 µM (BTK) | remaining activity at 10 µM (BTK) | remaining activity at 1 µM (RIPK2) | remaining activity at 10 µM (RIPK2) | IC50 (JAK3; dose response) | IC50 (BMX; dose response)
COCCOc1ccc(Nc2ncc(F)c(Nc3cccc(NC(=O)c4c(F)c(F)c(F)c(F)c4[S@+](C)[O-])c3)n2)cc1 (racemic) [Compound I-62, 2,3,4,5-tetrafluoro-N-(3-((5-fluoro-2-((4-(2-methoxyethoxy)phenyl)amino)pyrimidin-4-yl)amino)phenyl)-6-(methylsulfinyl)benzamide] | < 1000 nM | < 1000 nM | – | – | – | – | – | – | – | – | – | – | – | – | – | – | –
O=S(=O)(Nc1cc2c(Nc3ccc(F)c(Cl)c3)ncnc2cc1O[C@H]1CCOC1)c1c(F)c(F)c(F)c(F)c1C(F)(F)F [Compound I-1, (S)—N-(4-((3-chloro-4-fluorophenyl)amino)-7-((tetrahydrofuran-3-yl)oxy)quinazolin-6-yl)-2,3,4,5-tetrafluoro-6-(trifluoromethyl)benzenesulfonamide] | – | – | < 50% | < 50% | < 1000 nM | 50 to 90% | < 50% | > 90% | > 90% | 50 to 90% | 50 to 90% | 50 to 90% | < 50% | – | – | – | –
CS(=O)(=O)c1c(F)c(F)c(F)c(F)c1C(=O)N1CC(n2nc(-c3ccc(Oc4ccccc4)cc3)c3c(N)ncnc32)C1 [Compound I-27, (3-(4-amino-3-(4-phenoxyphenyl)-1H-pyrazolo[3,4-d]pyrimidin-1-yl)azetidin-1-yl)(2,3,4,5-tetrafluoro-6-(methylsulfonyl)phenyl)methanone] | – | – | < 50% | < 50% | < 1000 nM | < 50% | < 50% | 50 to 90% | < 50% | < 50% | < 50% | < 50% | < 50% | 50 to 90% | > 90% | < 1000 nM | –
CN(CCn1nc(-c2ccc(Oc3ccccc3)cc2)c2c(N)ncnc21)C(=O)c1c(F)c(F)c(F)c(F)c1S(C)(=O)=O [Compound I-28, N-(2-(4-amino-3-(4-phenoxyphenyl)-1H-pyrazolo[3,4-d]pyrimidin-1-yl)ethyl)-2,3,4,5-tetrafluoro-N-methyl-6-(methylsulfonyl)benzamide] | < 1000 nM | – | < 50% | < 50% | – | > 90% | < 50% | < 50% | < 50% | < 50% | < 50% | < 50% | < 50% | 50 to 90% | > 90% | – | < 1000 nM
CN(C)S(=O)(=O)c1c(F)c(F)c(F)c(F)c1C(=O)N1CC(n2nc(-c3ccc(Oc4ccccc4)cc3)c3c(N)ncnc32)C1 [Compound I-29, 2-(3-(4-amino-3-(4-phenoxyphenyl)-1H-pyrazolo[3,4-d]pyrimidin-1-yl)azetidine-1-carbonyl)-3,4,5,6-tetrafluoro-N,N-dimethylbenzenesulfonamide] | – | – | < 50% | < 50% | – | < 50% | < 50% | 50 to 90% | > 90% | < 50% | < 50% | < 50% | < 50% | 50 to 90% | 50 to 90% | – | –
CN(C)S(=O)(=O)c1c(F)c(F)c(F)c(F)c1C(=O)N1CCC[C@@H](n2nc(-c3ccc(Oc4ccccc4)cc3)c3c(N)ncnc32)C1 [Compound I-31, (R)-2-(3-(4-amino-3-(4-phenoxyphenyl)-1H-pyrazolo[3,4-d]pyrimidin-1-yl)piperidine-1-carbonyl)-3,4,5,6-tetrafluoro-N,N-dimethylbenzenesulfonamide] | – | – | > 90% | > 90% | – | > 90% | > 90% | 50 to 90% | > 90% | < 50% | < 50% | – | – | 50 to 90% | > 90% | – | –
CN(CCn1nc(-c2ccc(Oc3ccccc3)cc2)c2c(N)ncnc21)c1c(F)c(F)c(F)c(F)c1S(C)(=O)=O [Compound I-43, 1-(2-(methyl(2,3,4,5-tetrafluoro-6-(methylsulfonyl)phenyl)amino)ethyl)-3-(4-phenoxyphenyl)-1H-pyrazolo[3,4-d]pyrimidin-4-amine] | – | – | > 90% | 50 to 90% | – | > 90% | > 90% | > 90% | > 90% | 50 to 90% | > 90% | > 90% | > 90% | – | – | – | –
CS(=O)(=O)c1c(F)c(F)c(F)c(F)c1CNCCn1nc(-c2ccc(Oc3ccccc3)cc2)c2c(N)ncnc21 [Compound I-44, 3-(4-phenoxyphenyl)-1-(2-((2,3,4,5-tetrafluoro-6-(methylsulfonyl)benzyl)amino)ethyl)-1H-pyrazolo[3,4-d]pyrimidin-4-amine] | – | – | > 90% | < 50% | – | > 90% | < 50% | > 90% | < 50% | < 50% | < 50% | < 50% | < 50% | – | – | – | –
COCCOc1ccc(Nc2ncc(F)c(Nc3cccc(NS(=O)(=O)c4c(F)c(F)c(F)c(F)c4CF)c3)n2)cc1 [Compound I-58, 2,3,4,5-tetrafluoro-N-(3-((5-fluoro-2-((4-(2-methoxyethoxy)phenyl)amino)pyrimidin-4-yl)amino)phenyl)-6-(fluoromethyl)benzenesulfonamide] | < 1000 nM | – | > 90% | > 90% | – | > 90% | < 50% | < 50% | < 50% | < 50% | < 50% | < 50% | < 50% | – | – | – | –

From patent US20240018153A1, “BENZENESULFONAMIDE DERIVATIVES AND USES THEREOF” (2692372 ONTARIO, INC., priority 2020, published 2024)
